Where “and” joins values, the source holds several entries; their conditions need not be identical. Equal values may be shown once. No end group written: not given here.

The test system of one assay is DRN 5-HT neurons. As to the kind of experiment: Rat extracellular unitary recordings of DRN 5-HT neurons. The assay is classed as in vivo. The following applies: rats, 10^-5 M in 500 μl bolus i.p. The procedure: Single-barreled glass micropipettes (recording electrodes) were filled with a 2 M NaCl solution saturated with Fast Green FCF, resulting in an impedance of 2-5 MΩ. Rats were anaesthetized with chloral hydrate (400 mg/kg, i.p., using a 8% solution), and placed in a stereotaxic frame. A burr hole was drilled on the midline 1 mm anterior to lambda. DRN 5-HT neurons were encountered over a distance of 1 mm starting immediately below the ventral border of the Sylvius aqueduct. They were identified using the following criteria: a slow (0.5-2.5 Hz) and regular firing rate and long-duration (0.8-1.2 ms) action potentials, with a positive-negative spike. Spikes were computed by using the Spike 2 software, so that the firing rate was calculated as the mean number of events occurring within a 10 s period. For each neuron, the discharge was monitored during 60 seconds. Each rat received either spadin (10^−5M in a 500 μl bolus) or its vehicle. Starting 30 min after the injection, 2 to 3 successive descents were performed along the DRN, for a total of 8-12 cells recorded per animal. Recordings were performed for a maximal duration of 4 hours post-injection.

In the next assay the test system is mice. As to the kind of experiment: Corticosterone assay after tube restraint stress. Particulars: 30 min after 10 min tube restraint; spadin i.p. 10^-5 M. The class given is in vivo, mouse. The protocol: Mice were individually housed for at least 12 hours before blood sample collection. Serum samples, collected in the morning were obtained by retroorbital puncture before and 30 min after the end of a 10-min tube restraint. Levels of corticosterone were measured by radioimmunoassay using a commercially available kit (MP Biomedicals).

In assay [1] the test system is dentate gyrus of the mouse hippocampus. Nature of the assay: Hippocampal neurogenesis (BrdU / DCX labeling). The class given is in vivo. The protocol: Twenty-four hours after the injection of BrdU (120 mg per kg of body weight in a 300 μl bolus), mice were euthanized and transcardially perfused with 4% cold paraformaldehyde. Serial sections of the brains were cut (40 μm) throughout the entire hippocampus on a vibratome (Leica). Every sixth section throughout the hippocampus was processed for BrdU or doublecortin (DCX) immunohistochemistry, as previously described. For each immunodetection, slides were first incubated overnight at 4° C. with a mouse monoclonal anti-BrdU antibody (1:200; Becton-Dickinson) or a goat anti-DCX (1:400, Santa Cruz Laboratories). For chromogenic immunodetection, sections were then incubated for 1 hour in biotin-conjugated species-specific secondary antibodies (1:100; Vector Laboratories) followed by a peroxidase-avidin complex solution according to the manufacturer's protocol. The peroxidase activity of immune complexes was visualized with DAB staining using the VectaStain ABC kit (Vector Laboratories). For fluorescent double-labeling, performed to determine the cell phenotype, sections were incubated overnight at 4° C. with anti-sheep BrdU (1:200, Interchim), anti-goat DCX (1:200, Santa Cruz Laboratories), or an anti-GFAP (Glial Fibrillary acidic protein, marker for astrocytes, 1:250, Dako). […] All BrdU-labeled cells in the granular cell layer and subgranular zone (SGZ) were counted in each section (n=10 and 5 mice per group) at 400× and 1000× magnification under a light microscope (Olympus) by an experimenter blinded to the study code. The total number of BrdU-positive cells per section was multiplied by 6 to obtain the total number of cells per dentate gyrus. The counting of BrdU/DCX labeled cells was performed using a Laser Scanning Confocal Microscope (TCS SP, Leica) equipped with a DMIRBE inverted microscope.

A further assay deals with T1, TREK-1 (Mus musculus, UniProt P97438).
T1 sequence (P97438 1-426): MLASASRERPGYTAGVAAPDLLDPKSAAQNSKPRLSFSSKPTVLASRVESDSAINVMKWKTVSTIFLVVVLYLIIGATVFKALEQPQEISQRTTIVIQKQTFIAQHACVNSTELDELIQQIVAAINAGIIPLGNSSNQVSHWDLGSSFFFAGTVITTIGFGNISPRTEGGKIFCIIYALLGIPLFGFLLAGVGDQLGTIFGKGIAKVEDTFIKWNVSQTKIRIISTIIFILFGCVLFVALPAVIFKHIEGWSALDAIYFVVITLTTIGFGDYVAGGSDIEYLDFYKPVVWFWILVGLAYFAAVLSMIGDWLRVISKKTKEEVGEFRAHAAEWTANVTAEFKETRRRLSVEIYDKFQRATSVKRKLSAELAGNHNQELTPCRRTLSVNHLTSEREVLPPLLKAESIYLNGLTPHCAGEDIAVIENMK
As to the kind of experiment: Whole-cell patch-clamp on TREK-1 transfected COS-7 cells. The assay is classed as cell-based. Further details: GFP; expressed in transfected cells; host or cells: COS-7 (DEAE-dextran transfection). The following applies: after 90 sec of application. The procedure:
All electrophysiological experiments were done on COS-7 cells seeded at a density of 20,000 cells/35-mm dish 24 h before transfection. Cells were transfected by the classical DEAE-dextran method with TREK-1-GFP plasmids (0.1 μg/μL). Cells were visualized 48-72 h after transfection using fluorescence.
The whole-cell patch-clamp technique was used to evaluate TREK-1 potassium channel current by using a RK 400 patch-clamp amplifier (Axon Instruments, U.S.A.), as previously described. Currents were lowpass filtered at 3 kHz, digitized at 10 kHz using a 12-bit analog-to-digital converter. […] The bath solution contained (in mM): 150 NaCl, 5 KCl, 3 MgCl2, 1 CaCl2, and 10 HEPES, adjusted to pH 7.4 with NaOH; the patch pipette solution contained (in mM): 155 KCl, 3 MgCl2, 5 EGTA, and 10 HEPES, adjusted to pH 7.2 with KOH. Cells were clamped at −80 mV and voltage changes were either applied by ramp (from −100 to 50 mV, 1 s in duration) or by step (from −100 to 40 mV, 1.5 s in duration). Cells were continuously superfused with a microperfusion system. The pipette capacitance was not subtracted from total membrane capacitance and there was no leak substraction. All experiments were done at room temperature (21° C. to 22° C.) and in the presence of a cocktail of potassium channel inhibitors (K^+ blockers: 10 mM tetraethyl ammonium (TEA), 3 mM 4-aminopyridine (4-AP), 50 nM charybdotoxin, 10 μM glibenclamide, 100 nM apamin).
Pclamp software was used to analyze currents recorded in the whole-cell mode measured at 0 mV. Results are expressed as means±SD. To obtain the IC50 value for dose-dependent inhibition, experimental data were fitted with a standard sigmoidal function.
Background: In patch-clamp work, channel activity is measured electrically.

As for APLPRWSGPIGVSWGLR [spadin], in the assay on DRN 5-HT neurons, the “DRN 5-HT neuron firing rate” value stood at 2.66±0.36 Hz and the “increase of DRN 5-HT neuron firing rate versus saline” value is 125%. Moreover, the “reduction of stress-induced increase in corticosterone levels versus saline” value with mice stood at 79.5%. In assay [1] (4-day treatment), the “BrdU-labelled cells expressing DCX” value is 85.2% and 85%. Besides, the “number of BrdU-positive cells in the SGZ versus saline” value in assay [1] (4-day treatment, spadin i.p. 10^-5 M) is reported as “significantly increased by two-fold”. Further, the “number of BrdU-positive cells versus saline” value in assay [1] (15 days) was “maintained”. In addition, at TREK-1, the “inhibition of current increase induced by 10 μM aa” value is “inhibited the aa-induced increase”.

Source of the values: US20120322060A1, “DIAGNOSIS AND MONITORING TREATMENT OF PSYCHIATRIC DISEASES WITH SPADIN AND RELATED METHODS” (CENTRE NATIONAL DE LE RECHERCHE SCIENTIFIQUE - CNRS -, priority 2011, published 2012).
